Measurements reported in patent publication US8754040B2, “Cyclic peptide compound, method for producing same, anti-infective agent, antibiotic-containing fraction, antibiotic, method for producing antibiotic, antibiotic-producing microorganism, and antibiotic produced by same” (priority 2010, dated 2014).
Values after ≈ are worked out from the molar mass of the structure shown. “Also recorded” adds a separate entry of the source. Read-outs that look alike come from different tables or passages of the source. Positions of bridges follow the written chain, without caps; N, C: chain ends. Non-standard residues stand in square brackets, D forms with d. Residues, ends and D or L forms follow the SMILES beside them. *: point of attachment. Hexanoyl(3R-OH,5-Me) = CC(C)C[C@@H](O)CC(=O)*; dNMeF = CN[C@H](Cc1ccccc1)C(=O)O

Legend:
[1] = system: Staphylococcus aureus; experiment: silkworm Staphylococcus aureus infection model (therapeutic effect); format: in vivo, silkworm (larva of Bombyx mori); settings: purification stages, Table 2
Text: In the present invention too, a first screening to narrow down effective strains from several tens of thousands of extraordinary large numbers of strains may be done by any method as far as the antibacterial activity can be evaluated with the said method; and thus, for example, by referring to MIC, test bodies showing the antibacterial activity to Staphylococcus aureus in culture supernatant of each strain may be picked up. This is because strains not showing the antibacterial activity at all are not in the scope of examination. Any method capable of evaluating the antibacterial activity may be used; but a method with which a strain recognized to show, with referring to MIC, the antibacterial activity to Staphylococcus aureus in culture supernatant of various test strains is picked up is preferable. […]
Strains recognized to show the therapeutic effect in the silkworm Staphylococcus aureus infection model are further subjected to various separation and purification treatments wherein the therapeutic effect is evaluated in each operation by using the silkworm Staphylococcus aureus infection model. […]

[2] = system: Smith strain of Staphylococcus aureus; experiment: mouse Staphylococcus aureus infection model (therapeutic effect); format: in vivo, mouse (ICR female)
Protocol: Smith strain of Staphylococcus aureus was suspended in 7% mucin+0.2 mM ferric ammonium citrate, and 6.2×10^6 (20×LD50) thereof was administered into the peritoneal cavity of 5 mice per group (ICR female of four weeks of age). Each drug was injected hypodermically 2 hours after administration of the bacterium by the method shown below.
Similarly, ED50 of vancomycin to the mouse model used this time was studied. […] Here, ED50 values were obtained by the probit method.

[3] = system: Candida tropicalis pK233; format: cell-based
[4] = system: Staphylococcus aureus; experiment: survived cell numbers (CFU) of Staphylococcus aureus after drug addition; format: cell-based; settings: 25 μg/ml
Protocol: To CA-Mueller Hinton Broth medium were taken 1.8×10^8 Staphylococcus aureus, and then the foregoing RH2180-5 Peak 5 Substance (25 μg/mL), vancomycin (VM, 5 μg/mL), and gentamicin (GM, 2.5 μg/mL) were added thereinto; and then, survived cell numbers after 15 minutes, 30 minutes, 60 minutes, and 120 minutes were obtained as CFU (colony forming unit/mL).

[5] = system: Salmonella enterica
Text: (§1) Antibacterial activity of the antibiotic-substance-containing fraction at each fractionation stage from a culture produced from RH2180-5 and that of the antibiotic substance obtained therefrom by separation and purification thereof can be evaluated by MIC. […] For example, it is done with a broth microdilution method based on CLSI (formerly NCCLS: National Committee for Clinical Laboratory Standards).
Antibacterial spectrum of the RH2180-5 Peak 5 Substance to various bacteria including MRSA and VRE was studied. In addition, influence of chemical resistance was also studied. For study of the latter, Staphylococcus aureus and Enterococcus faecalis were selected, wherein measurement of MIC value of each peak substance was made by a broth microdilution method based on CLSI (formerly NCCLS: National Committee for Clinical Laboratory Standards) as to Staphylococcus aureus not showing resistance to a chemical (hereinafter abbreviated as “MSSA 1”) and two kinds of MRSA showing resistance to many chemicals including methicillin (MRSA 3 and MRSA 4; see Table 3 for resistive chemicals) for Staphylococcus aureus; and as to Enterococcus faecalis not showing resistance to a chemical (hereinafter abbreviated as “EF 1”) and showing resistance to vancomycin (hereinafter abbreviated as “VRE”) for Enterococcus faecalis. […]

[6] = acute toxicity test to a mouse; format: in vivo
Protocol: Further, the RH2180-5 Peak 5 Substance was injected hypodermically to the mouse to study acute toxicity of the RH2180-5 Peak 5 Substance to the mouse by observation one day after the administration.

[7] = system: Staphylococcus aureus (MSSA1)
Text: as §1
Antibacterial spectrum of the RH2180-5 Peak 5 Substance to various bacteria including MRSA and VRE was studied. In addition, influence of chemical resistance was also studied. For study of the latter, Staphylococcus aureus and Enterococcus faecalis were selected, wherein measurement of MIC value of each peak substance was made by a broth microdilution method based on CLSI (formerly NCCLS: National Committee for Clinical Laboratory Standards) as to Staphylococcus aureus not showing resistance to a chemical (hereinafter abbreviated as “MSSA 1”) and two kinds of MRSA showing resistance to many chemicals including methicillin (MRSA 3 and MRSA 4; see Table 3 for resistive chemicals) for Staphylococcus aureus; and as to Enterococcus faecalis not showing resistance to a chemical (hereinafter abbreviated as “EF 1”) and showing resistance to vancomycin (hereinafter abbreviated as “VRE”) for Enterococcus faecalis.
Test microorganisms of Staphylococcus aureus and Enterococcus faecalis, the same as Test Example 1, were selected; and measurement of MIC value of each peak substance was made by a broth microdilution method based on CLSI (formerly NCCLS: National Committee for Clinical Laboratory Standards) as to MSSA 1 and EF 1, and MRSA 3, MRSA 4, and VRE, the same as Test Example 1.
Antibacterial spectrum of the foregoing RH2180-5 Peak 5 Substance to various microorganisms including MRSA and VRE was studied. Each MIC value for the case added with 10% blood serum and for the case not added with the same was measured by a broth microdilution method based on CLSI (formerly NCCLS: National Committee for Clinical Laboratory Standards).

[8] = system: Cryptococcus neoformans H99; format: cell-based
[9] = system: Staphylococcus aureus; experiment: bacteriolytic activity, absorbance at 600 nm (OD600); format: cell-based; settings: concentration five times that of Test Example 1, 37° C., compared with vancomycin and daptomycin, FIG. 11
Protocol: Staphylococcus aureus was diluted in CA-Mueller Hinton Broth medium; and then, the RH2180-5 Peak 5 Substance, vancomycin, and daptomycin were added thereinto with the concentrations thereof being five times as much as those of Test Example 1; and then, the microorganism was cultured at 37° C. By using an absorption spectrometer (manufactured by Shimadzu Corp.), absorbance at 600 nm (OD600) after their addition was followed with passage of time.

[10] = system: Listeria monocytogenes; format: cell-based
[11] = system: Streptococcus pyogenes; format: cell-based

For `CC[C@H](C)[C@@H]1NC(=O)[C@@H](Cc2c[nH]c3ccccc23)NC(=O)[C@@H](CCC(N)=O)NC(=O)[C@H](CCC(=O)O)NC(=O)[C@@H](CCCNC(=N)N)NC(=O)[C@H](CC(C)C)NC(=O)[C@@H](Cc2ccccc2)N(C)C(=O)CNC(=O)[C@H](CO)NC(=O)[C@@H](CCCNC(=N)N)NC(=O)[C@@H](NC(=O)C[C@H](O)CC(C)C)[C@@H](C)OC(=O)[C@H]([C@@H](C)O)NC1=O` [Peak P5] ({Hexanoyl(3R-OH,5-Me)}-T[dR]SG[dNMeF]L[dR]E[dQ][dW]IT; ester 1-C), the ED50 [1] was 0.3 μg/g-larva, the “survival in the mouse Staphylococcus aureus infection model” value ([2]; 25 mg/kg hypodermically, no survival with PBS administration, 5 mice per group) was “survival of totality of mice” and the “ED50 value relative to vancomycin” value ([2]; mouse Staphylococcus aureus infection model) was “about one third”. For the same compound, the ED50 ([2]; mouse, S. aureus Smith 6.2 × 10^6 (20 × LD50) intraperitoneal, drug injected hypodermically 2 hours later, survival one day after, probit method) was 0.6 mg/kg, the MIC [3] was over 100 µg/mL and the “CFU/ml of S. aureus” value ([4]; 15 minutes, start 1.8 × 10^8) was <1 × 10^4 CFU/ml. The “CFU/ml of S. aureus” value ([4]; 30 minutes) was <1 × 10^4 CFU/ml, the “CFU/ml of S. aureus” value ([4]; 60 minutes) was <1 × 10^4 CFU/ml and the “CFU/ml of S. aureus” value ([4]; 120 minutes) was <1 × 10^4 CFU/ml. For the same compound, the MIC ([5]; Table 3, Salmonella enteria) was over 100 µg/mL, the MIC ([5]; Table 6, without serum, Salmonella enterica) was over 100 µg/mL and the “acute toxicity to the mouse” value ([6]; injected hypodermically, up to 50 mg/kg, observation one day after the administration, listed as RH2180-5 Peak 5 Substance) was “mouse was not killed; also recorded: no toxicity observed”. The “highest dose without toxicity (50 mg/kg) relative to ED50” value ([6]; mouse, hypodermic) was 80 folds, the MIC ([7]; Table 3, Staphylococcus aureus (MSSA1), resistance-showing chemicals: Non) was 5 µg/mL (≈ 3.09 µM) and the MIC ([7]; Table 4, MSSA1) was 6.3 µg/mL (≈ 3.89 µM). The MIC ([7]; Table 6, with 10% serum, Methicillin susceptible S. aureus MSSA1 (clinical isolate)) was 1.5 µg/mL (≈ 0.927 µM), the MIC ([7]; Table 6, without serum, Methicillin susceptible S. aureus MSSA1 (clinical isolate)) was 3.1 µg/mL (≈ 1.92 µM) and the MIC [8] was over 100 µg/mL. For the same compound, the “bacteriolytic activity (decrease of absorbance OD600)” value [9] was “shows the bacteriolytic activity”, the Solubility to solvents (chloroform) was “Insoluble” and the Solubility to solvents (water, ethanol, methanol, and acetonitrile) was “Soluble”. For the same compound, the MIC [10] was 6.3 µg/mL (≈ 3.89 µM) and the MIC [11] was 50 µg/mL (≈ 30.9 µM).
